Paper PMC9950073, “Alleviation of arthritis through prevention of neutrophil extracellular traps by an orally available inhibitor of protein arginine deiminase 4” (Scientific Reports, 2023)

How the values were obtained:
human neutrophils = test: Cell Titer Glo viability assay, neutrophils; format: cell-based; settings: 24 h, up to 10 µM
From the text: All blood samples from healthy donors who participated in this study were obtained after informed consent in accordance with relevant guidelines and regulations given by the ACE Independent ethics committee for Jubilant Biosys Ltd and Office of Clinical Investigations at Boston Children’s Hospital. The ACE Independent ethics committee, Bangalore, approved the use of human whole blood/PBMC/Enriched Subset in Jubilant Biosys Ltd investigations, Drug Controller General of India (DCGI) Reg No. ECR/141/Indt/KA/2013. Briefly, 10 mL K2EDTA vacutainers were used to collect fresh blood from healthy donors (BD vacutainer, Catalog No: BD 367525). A total of 50 ml of blood was taken from a single, healthy human donor. Neutrophils were isolated from human blood using the EasySep Direct Human Neutrophil Isolation Kit, according to the manufacturer's instructions (Stem Cell Technology, Catalog No: 19666). For investigations conducted at Boston Children’s Hospital, experimental procedure was approved by the Office of Clinical Investigations at Boston Children’s Hospital (protocol number IRB-P00003283). […]
The CellTiter-Glo luminescent cell viability assay was performed on neutrophils/peripheral blood mononuclear cells according to the manufacturer’s instructions (Promega, catalog number: G7570)[35]. […] Luminescence was recorded with Perkin Elmer envision 2103 multilabel reader.

CYP2C9 = target: T1, CYP2C9 (Homo sapiens, UniProt P11712); test: CYP inhibition in human liver microsome, CYP2C9; format: in vitro ADME
T1 construct: from tissue; host or cells: human liver microsomes
T1 sequence (P11712 whole entry): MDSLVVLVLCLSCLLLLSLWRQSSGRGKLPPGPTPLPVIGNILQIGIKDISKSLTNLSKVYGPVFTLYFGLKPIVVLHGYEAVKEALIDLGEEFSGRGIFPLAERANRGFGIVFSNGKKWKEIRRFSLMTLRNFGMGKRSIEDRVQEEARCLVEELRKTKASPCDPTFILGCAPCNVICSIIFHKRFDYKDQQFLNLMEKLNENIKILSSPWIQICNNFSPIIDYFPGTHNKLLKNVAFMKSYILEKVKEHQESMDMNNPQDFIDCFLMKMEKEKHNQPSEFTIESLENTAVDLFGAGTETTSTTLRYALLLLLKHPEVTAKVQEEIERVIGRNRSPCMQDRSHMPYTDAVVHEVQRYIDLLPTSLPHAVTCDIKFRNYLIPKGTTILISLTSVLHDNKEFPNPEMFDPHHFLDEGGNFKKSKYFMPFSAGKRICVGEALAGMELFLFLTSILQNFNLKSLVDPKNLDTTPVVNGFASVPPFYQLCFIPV
Method: CYP inhibition: Human liver microsome (0.1–0.5 mg/mL for various CYPs) and appropriate probe substrates (2.5–20 µM) were incubated in potassium phosphate buffer with or without JBI-589 for 5 min at 37 °C. The reaction was initiated by addition of NADPH (1 mM), incubated at 37 °C for 10 min and quenched (0.5% Formic acid in internal standard (IS) containing ACN). Samples were then centrifuged and taken for LC–MS/MS analysis. Percent change in metabolite formation for each substrate under above conditions using formula: Percent inhibition = [1 − (test area ratio/control area ratio)] *100.

mouse neutrophils = test: In vitro NET assay, mouse neutrophils; format: cell-based; settings: pretreatment 10 μM for 15 min, ionomycin 4 µM 4 h
Method: Mouse peripheral blood was collected by retro-orbital puncture in ethylenediaminetetraacetic acid (EDTA) anticoagulated buffer supplemented with 1% endotoxin-free BSA in sterile PBS. Neutrophils were isolated by Percoll gradient centrifugation as described previously. The purity of neutrophils was more than 90% as confirmed by the Wright-Giemsa stain.
Mouse or human neutrophils were resuspended in HEPES-supplemented phenol red-free RPMI1640 medium and 1.5 × 10^4 cells were seeded per well in a 96-well plate. After incubating for 20 min at 37 °C and 5% CO2, the cells were stimulated with vehicle control or ionomycin (Sigma, Catalog No: I24222) (4 µM) for 4 h. Neutrophils were fixed with 4% paraformaldehyde (PFA), washed and permeabilized (0.1% Triton X-100, 0.1% sodium citrate) for 10 min at 4 °C. Subsequently, neutrophils were incubated with blocking buffer (2.5% BSA, 0.5% Tween-20 in 1 × PBS) at room temperature for an hour followed by overnight incubation with the primary antibody against citrullinated histone H4 (H4Cit, 1:250, catalog number: 07-596, Millipore, Burlington, MA). […] Images were obtained with a Zeiss Axiovert 200 M wide-field fluorescence microscope (Zeiss, Oberkochen, Germany) with the Zeiss AxioVision software. The percentages of H4Cit positive neutrophils and neutrophil extracellular traps (NETs) were calculated by quantifying more than 200 randomly selected cells. […]

inhibition at 10 min, 10 µM (CYP2C9; human liver microsomes, 10 µM, human liver microsome, read-out: CYP2C9 inhibition (% inh @10 µM)): < 50%
IC50 (CYP2C9; predicted from % inhibition, text says major CYPs tested): > 10 µM
SMILES: Cc1c(-c2cc3ccccc3n2Cc2ccc(F)cc2)nc2cc(C(=O)N3CCC[C@@H](N)C3)ccn12 [JBI-589, (R)-(3-aminopiperidin-1-yl)(2-(1-(4-fluorobenzyl)-1H-indol-2-yl)-3-methylimidazo[1,2-a]pyridin-7-yl)methanone]
viability of neutrophils (human neutrophils): minimal or no changes
H4Cit positivity (mouse neutrophils): markedly diminished
NET formation (mouse neutrophils): markedly diminished
